Results published in patent US6737383B1, “Herbicidal oxadiazolidines” (priority 1999, dated 2004).

Experiments:
morningglory = test: Test B pre/postemergence morningglory; assay type: in vivo, Ipomoea hederacea
Outline: (§1)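 Test chemicals in a non-phytotoxic solvent mixture with surfactant were sprayed preemergence onto planted seeds and postemergence onto plants 2 to 18 cm tall (1- to 4-leaf stage). After twelve to sixteen days in a greenhouse, injury was visually rated against untreated controls from 0 (no effect) to 10 (complete control).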

surinam grass = test: Test B pre/postemergence surinam grass; assay type: in vivo, Brachiaria decumbens
Outline: as §1

soybean = test: Test B pre/postemergence soybean; assay type: in vivo, Glycine max
Outline: as §1

corn = test: Test B pre/postemergence corn; assay type: in vivo, Zea mays
Outline: as §1

bamyardgrass = test: Test B flood test barnyardgrass; assay type: in vivo, Echinochloa crus-galli
Outline: (§2)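 Each value is a visual injury score relative to controls, with 10 meaning complete control and 0 no effect. Evaluation took place twelve to sixteen days after the 2-leaf-stage plants were treated and kept in the greenhouse.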

purple nutsedge = test: Test B pre/postemergence purple nutsedge; assay type: in vivo, Cyperus rotundus
Outline: as §1

smallflower flatsedge = test: Test B flood test smallflower flatsedge; assay type: in vivo, Cyperus difformis
Outline: as §2

giant foxtail = test: Test B pre/postemergence giant foxtail; assay type: in vivo, Setaria faberii
Outline: as §1

wild oat = test: Test B pre/postemergence wild oat; assay type: in vivo, Avena fatua
Outline: as §1

blackgrass = test: Test B pre/postemergence blackgrass; assay type: in vivo, Alopecurus myosuroides
Outline: as §1

velvetleaf = test: Test B pre/postemergence velvetleaf; assay type: in vivo, Abutilon theophrasti
Outline: as §1

crabgrass = test: Test B pre/postemergence crabgrass; assay type: in vivo, Digitaria sanguinalis
Outline: as §1

pigweed = test: Test B pre/postemergence pigweed; assay type: in vivo, Amaranthus retroflexus
Outline: as §1

rape = test: Test B pre/postemergence rape; assay type: in vivo, Brassica napus
Outline: as §1

sugar beet = test: Test B pre/postemergence sugar beet; assay type: in vivo, Beta vulgaris
Outline: as §1

cocklebur = test: Test B pre/postemergence cocklebur; assay type: in vivo, Xanthium strumarium
Outline: as §1

[1] = Preemergence, Rate 62 g/ha, scale of 0 to 10 where 0 is no effect and 10 is complete control
[2] = Preemergence, Rate 250 g/ha, scale of 0 to 10 where 0 is no effect and 10 is complete control
[3] = Preemergence, Rate 500 g/ha, scale of 0 to 10 where 0 is no effect and 10 is complete control
[4] = Rate 62 g/ha, Postemergence, scale of 0 to 10 where 0 is no effect and 10 is complete control
[5] = Rate 125 g/ha, Postemergence, scale 0 to 10
[6] = Rate 125 g/ha, Preemergence, scale of 0 to 10 where 0 is no effect and 10 is complete control
[7] = Rate 500 g/ha, Postemergence, scale 0 to 10
[8] = Rate 62 g/ha, headed Pre-emergence (flood test species), scale 0 to 10 (0 no effect, 10 complete control)
[9] = Rate 125 g/ha, Pre-emergence, flood test species, scale 0 to 10 where 0 is no effect and 10 is complete control
[10] = Rate 250 g/ha, Pre-emergence, flood-test species, scale 0 to 10, 0 is no effect, 10 is complete control
[11] = Rate 500 g/ha, Pre-emergence, flood test species, scale 0 to 10 (0 no effect, 10 complete control)

With `CC(C)N(C(=O)n1oc(=O)n(CC(=O)C(C)(C)C)c1=O)c1ccc(F)cc1` [Compound 216] the “Morningglory plant response rating” value (morningglory; [1]) was 0, the “Morningglory plant response rating” value (morningglory; [2]) was 0 and the “Plant response rating, Morningglory” value (morningglory; [3]) was 0. For the same molecule, the “Morningglory plant response rating” value (morningglory; [4]) was 3, the “Morningglory plant response rating” value (morningglory; [5]) was 4 and the “Morningglory plant response rating” value (morningglory; [6]) was 0. The “Plant response rating (0 to 10; 0 is no effect, 10 is complete control), Morningglory” value (morningglory; Rate 250 g/ha, Postemergence) was 7, the “Morningglory plant response rating” value (morningglory; [7]) was 10 and the “B. signalgrass plant response rating” value (surinam grass; [1]) was 0. For the same molecule, the “B. signalgrass plant response rating” value (surinam grass; Preemergence, Rate 250 g/ha, scale 0 to 10, 0 is no effect, 10 is complete control) was 4, the “Plant response rating, B. signalgrass” value (surinam grass; [3]) was 4 and the “B. signalgrass plant response rating” value (surinam grass; [4]) was 0. For the same molecule, the “B. signalgrass plant response rating” value (surinam grass; Rate 125 g/ha, Postemergence, scale 0 (no effect) to 10 (complete control)) was 2, the “B. signalgrass plant response rating” value (surinam grass; [6]) was 1 and the “Plant response rating (0 to 10; 0 is no effect, 10 is complete control), B. signalgrass” value (surinam grass; Rate 250 g/ha, Postemergence) was 5. The “B. signalgrass plant response rating” value (surinam grass; Rate 500 g/ha, Postemergence, scale 0 to 10, 0 no effect, 10 complete control) was 8, the “Soybean plant response rating” value (soybean; [1]) was 0 and the “Soybean plant response rating” value (soybean; [2]) was 0. For the same molecule, the “Plant response rating, Soybean” value (soybean; [3]) was 0, the “Soybean plant response rating” value (soybean; [4]) was 1 and the “Soybean plant response rating” value (soybean; [5]) was 1. For the same molecule, the “Soybean plant response rating” value (soybean; [6]) was 0, the “Plant response rating (0 to 10; 0 is no effect, 10 is complete control), Soybean” value (soybean; Rate 250 g/ha, Postemergence) was 1 and the “Soybean plant response rating” value (soybean; [7]) was 2. For the same molecule, the “Corn plant response rating” value (corn; [1]) was 0, the “Corn plant response rating” value (corn; [2]) was 0 and the “Plant response rating, Corn” value (corn; [3]) was 0. The “Corn plant response rating” value (corn; [4]) was 0, the “Corn plant response rating” value (corn; [5]) was 0 and the “Corn plant response rating” value (corn; [6]) was 0. The “Plant response rating (0 to 10; 0 is no effect, 10 is complete control), Corn” value (corn; Rate 250 g/ha, Postemergence) was 2, the “Corn plant response rating” value (corn; [7]) was 3 and the “Barnyardgrass plant response rating” value (bamyardgrass; [8]) was 0. For the same molecule, the “Barnyardgrass plant response rating” value (bamyardgrass; [9]) was 0, the “Barnyardgrass plant response rating” value (bamyardgrass; [10]) was 0 and the “Barnyardgrass plant response rating” value (bamyardgrass; [11]) was 0. The “Nutsedge plant response rating” value (purple nutsedge; [1]) was 0, the “Nutsedge plant response rating” value (purple nutsedge; [2]) was 0 and the “Plant response rating, Nutsedge” value (purple nutsedge; [3]) was 0. For the same molecule, the “Nutsedge plant response rating” value (purple nutsedge; [4]) was 0, the “Nutsedge plant response rating” value (purple nutsedge; [5]) was 0 and the “Nutsedge plant response rating” value (purple nutsedge; [6]) was 0. The “Plant response rating (0 to 10; 0 is no effect, 10 is complete control), Nutsedge” value (purple nutsedge; Rate 250 g/ha, Postemergence) was 0, the “Nutsedge plant response rating” value (purple nutsedge; [7]) was 0 and the “S. Flatsedge plant response rating” value (smallflower flatsedge; [8]) was 0. The “S. Flatsedge plant response rating” value (smallflower flatsedge; [9]) was 0, the “S. Flatsedge plant response rating” value (smallflower flatsedge; [10]) was 0 and the “S. Flatsedge plant response rating” value (smallflower flatsedge; [11]) was 0. The “Giant foxtail plant response rating” value (giant foxtail; [1]) was 0, the “Giant foxtail plant response rating” value (giant foxtail; [2]) was 7 and the “Plant response rating, Giant foxtail” value (giant foxtail; [3]) was 9. For the same molecule, the “Giant foxtail plant response rating” value (giant foxtail; [4]) was 0, the “Giant foxtail plant response rating” value (giant foxtail; [5]) was 2 and the “Giant foxtail plant response rating” value (giant foxtail; [6]) was 6. The “Plant response rating (0 to 10; 0 is no effect, 10 is complete control), Giant foxtail” value (giant foxtail; Rate 250 g/ha, Postemergence) was 4, the “Giant foxtail plant response rating” value (giant foxtail; [7]) was 6 and the “Wild oats plant response rating” value (wild oat; [1]) was 0. The “Wild oats plant response rating” value (wild oat; [2]) was 0, the “Plant response rating, Wild oats” value (wild oat; [3]) was 0 and the “Wild oats plant response rating” value (wild oat; [4]) was 0. For the same molecule, the “Wild oats plant response rating” value (wild oat; [5]) was 0, the “Wild oats plant response rating” value (wild oat; [6]) was 0 and the “Plant response rating (0 to 10; 0 is no effect, 10 is complete control), Wild oats” value (wild oat; Rate 250 g/ha, Postemergence) was 0. For the same molecule, the “Blackgrass plant response rating” value (blackgrass; [1]) was 0, the “Blackgrass plant response rating” value (blackgrass; [2]) was 4 and the “Plant response rating, Blackgrass” value (blackgrass; [3]) was 4. For the same molecule, the “Blackgrass plant response rating” value (blackgrass; [4]) was 0, the “Blackgrass plant response rating” value (blackgrass; [5]) was 4 and the “Blackgrass plant response rating” value (blackgrass; [6]) was 2. For the same molecule, the “Plant response rating (0 to 10; 0 is no effect, 10 is complete control), Blackgrass” value (blackgrass; Rate 250 g/ha, Postemergence) was 8, the “Blackgrass plant response rating” value (blackgrass; [7]) was 8 and the “Velvetleaf plant response rating” value (velvetleaf; [1]) was 0. For the same molecule, the “Velvetleaf plant response rating” value (velvetleaf; [2]) was 0, the “Plant response rating, Velvetleaf” value (velvetleaf; [3]) was 0 and the “Velvetleaf plant response rating” value (velvetleaf; [4]) was 0. The “Velvetleaf plant response rating” value (velvetleaf; [5]) was 0, the “Velvetleaf plant response rating” value (velvetleaf; [6]) was 0 and the “Plant response rating (0 to 10; 0 is no effect, 10 is complete control), Velvetleaf” value (velvetleaf; Rate 250 g/ha, Postemergence) was 0. For the same molecule, the “Crabgrass plant response rating” value (crabgrass; [1]) was 0, the “Crabgrass plant response rating” value (crabgrass; [2]) was 8 and the “Plant response rating, Crabgrass” value (crabgrass; [3]) was 8. For the same molecule, the “Crabgrass plant response rating” value (crabgrass; [4]) was 0, the “Crabgrass plant response rating” value (crabgrass; [5]) was 2 and the “Crabgrass plant response rating” value (crabgrass; [6]) was 3. The “Plant response rating (0 to 10; 0 is no effect, 10 is complete control), Crabgrass” value (crabgrass; Rate 250 g/ha, Postemergence) was 4, the “Crabgrass plant response rating” value (crabgrass; [7]) was 7 and the “Redroot pigweed plant response rating” value (pigweed; [1]) was 0. For the same molecule, the “Redroot pigweed plant response rating” value (pigweed; [2]) was 2, the “Plant response rating, Redroot pigweed” value (pigweed; [3]) was 8 and the “Redroot pigweed plant response rating” value (pigweed; [4]) was 0. The “Redroot pigweed plant response rating” value (pigweed; [5]) was 0, the “Redroot pigweed plant response rating” value (pigweed; [6]) was 0 and the “Plant response rating (0 to 10; 0 is no effect, 10 is complete control), Redroot pigweed” value (pigweed; Rate 250 g/ha, Postemergence) was 2. The “Redroot pigweed plant response rating” value (pigweed; [7]) was 3, the “Rape plant response rating” value (rape; [1]) was 0 and the “Rape plant response rating” value (rape; [2]) was 0. For the same molecule, the “Plant response rating, Rape” value (rape; [3]) was 0, the “Rape plant response rating” value (rape; [4]) was 0 and the “Rape plant response rating” value (rape; [5]) was 0. For the same molecule, the “Rape plant response rating” value (rape; [6]) was 0, the “Plant response rating (0 to 10; 0 is no effect, 10 is complete control), Rape” value (rape; Rate 250 g/ha, Postemergence) was 0 and the “Rape plant response rating” value (rape; [7]) was 3. For the same molecule, the “Sugarbeets plant response rating” value (sugar beet; [1]) was 0, the “Sugarbeets plant response rating” value (sugar beet; [2]) was 0 and the “Plant response rating, Sugarbeets” value (sugar beet; [3]) was 0. For the same molecule, the “Sugarbeets plant response rating” value (sugar beet; [4]) was 0, the “Sugarbeets plant response rating” value (sugar beet; [5]) was 0 and the “Sugarbeets plant response rating” value (sugar beet; [6]) was 0. For the same molecule, the “Plant response rating (0 to 10; 0 is no effect, 10 is complete control), Sugarbeets” value (sugar beet; Rate 250 g/ha, Postemergence) was 0, the “Sugarbeets plant response rating” value (sugar beet; [7]) was 2 and the “Cocklebur plant response rating” value (cocklebur; [1]) was 0. For the same molecule, the “Cocklebur plant response rating” value (cocklebur; [2]) was 0, the “Plant response rating, Cocklebur” value (cocklebur; [3]) was 0 and the “Cocklebur plant response rating” value (cocklebur; [4]) was 0. For the same molecule, the “Cocklebur plant response rating” value (cocklebur; [5]) was 0, the “Cocklebur plant response rating” value (cocklebur; [6]) was 0 and the “Plant response rating (0 to 10; 0 is no effect, 10 is complete control), Cocklebur” value (cocklebur; Rate 250 g/ha, Postemergence) was 0. The “Cocklebur plant response rating” value (cocklebur; [7]) was 3.
